Structures are written as SMILES.

This assay in a line: Inhibition of PGPH-like activity of 20S proteasome in human erythrocytes using Z-Leu-Leu-Glu-AMC as substrate by fluorescence assay.
For orientation: Ki means the dissociation constant of the complex between target and ligand, obtained from inhibition or displacement. Low readings indicate tighter binding, high ones weaker binding. In turn, `CC(C)C[C@H](NC(=O)CCn1ccc2ncccc2c1=O)B(O)O` gave an inhibition constant (Ki) of 690 nM.
In the case of `CC(C)C[C@H](NC(=O)Cn1ccc2ccccc2c1=O)B(O)O` it was 990 nM; in that of `CC(C)C[C@H](NC(=O)CCn1ccc2ccccc2c1=O)B(O)O`, 240 nM.
On to `COc1cc2ccn(CCC(=O)N[C@@H](CC(C)C)B(O)O)c(=O)c2cc1OC`, for which the affinity, expressed as Ki, was 1250 nM.
The molecule `CC(C)C[C@H](NC(=O)Cn1ccc2ccc(Br)cc2c1=O)B(O)O` registered a Ki of 310 nM.
On to `CC(C)C[C@H](NC(=O)CCn1ccc2ccc(Br)cc2c1=O)B(O)O`, for which affinity was put at a Ki of 2040 nM.

Values taken from BindingDB's records for doi:10.1016/j.ejmech.2014.06.017 (University of Messina, 2014).
